Laboratory results as given in patent publication US20140314740A1, “COMPOSITIONS AND METHODS FOR THE PREVENTION OR TREATMENT OF DIABETIC COMPLICATIONS” (The Johns Hopkins University, priority 2011, published 2014).
Entries after “also recorded” stand apart in the source; their conditions may differ.

Columns and labels:
GLUT1 [1] = target: T1, GLUT1 (Mus musculus, UniProt P17809); experiment: Glucose measurements in retina, brain and red blood cells (RBC) of streptozotocin-diabetic mice; format: in vivo, C57BL/6 mice; details: for retinal glucose levels: diabetic mice; for retinal glucose (summary statement): systemic treatment of diabetic mice, dose not given
T1 sequence (P17809 1-492): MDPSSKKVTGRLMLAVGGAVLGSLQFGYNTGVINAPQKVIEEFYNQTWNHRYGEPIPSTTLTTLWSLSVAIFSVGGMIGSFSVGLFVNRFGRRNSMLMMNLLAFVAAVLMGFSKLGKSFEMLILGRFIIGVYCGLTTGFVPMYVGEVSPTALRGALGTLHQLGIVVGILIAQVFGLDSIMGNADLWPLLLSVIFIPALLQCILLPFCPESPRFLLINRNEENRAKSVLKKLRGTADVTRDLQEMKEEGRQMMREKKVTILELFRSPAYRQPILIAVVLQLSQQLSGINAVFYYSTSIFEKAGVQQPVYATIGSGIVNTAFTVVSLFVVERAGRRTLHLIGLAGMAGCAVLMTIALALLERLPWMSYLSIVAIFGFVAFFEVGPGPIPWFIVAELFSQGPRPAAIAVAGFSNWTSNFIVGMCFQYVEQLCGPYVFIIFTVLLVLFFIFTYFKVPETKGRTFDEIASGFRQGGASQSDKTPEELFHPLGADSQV

superoxide radicals = experiment: Superoxide radical assay (hydroethidine-induced fluorescence) in retinal homogenates of diabetic mice; format: in vivo, C57BL/6 mice; details: 1 month of diabetes; 1,9-dideoxyforskolin 0.1 mg/kg daily
Experimental: Superoxide radicals were measured in retinal homogenates by measuring dihydroethidine-induced fluorescence (Georgiou et al., 2008; Chen et al., 2009). Briefly, 200 μl reaction mixtures of freshly prepared retinal homogenates (20 μg protein) containing 2.5 μM dihydroethidium and 0.05 μg/μl salmon testes DNA were placed in 96-well microplates at 37° C. for 30 min. The fluorescence was measured at an excitation of 480 nm and an emission of 610 nm. Each sample was assayed in triplicate.

GLUT1 [2] = target: T2, GLUT1 (Homo sapiens, UniProt P11166); details: literature statement; cited from earlier work
T2 sequence (P11166 1-492): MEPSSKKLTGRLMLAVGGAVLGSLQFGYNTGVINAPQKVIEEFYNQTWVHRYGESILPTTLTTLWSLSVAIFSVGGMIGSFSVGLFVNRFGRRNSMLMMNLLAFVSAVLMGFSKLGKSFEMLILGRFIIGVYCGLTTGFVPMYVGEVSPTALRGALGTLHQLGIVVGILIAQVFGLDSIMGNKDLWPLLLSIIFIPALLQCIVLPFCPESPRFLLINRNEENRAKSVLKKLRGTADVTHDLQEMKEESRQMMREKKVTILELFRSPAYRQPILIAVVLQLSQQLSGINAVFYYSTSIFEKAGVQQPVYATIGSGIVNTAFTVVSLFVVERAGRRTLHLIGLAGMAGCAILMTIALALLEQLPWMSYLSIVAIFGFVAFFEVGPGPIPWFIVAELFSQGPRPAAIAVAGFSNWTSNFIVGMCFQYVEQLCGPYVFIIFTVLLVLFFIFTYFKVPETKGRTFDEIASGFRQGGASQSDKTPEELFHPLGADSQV

GLUT1 [3] = target: T2, GLUT1; details: literature statement; cited from earlier work; remark: listed apart in the source
adenylate cyclase = details: literature statement; cited from earlier work
tyrosine kinases = details: literature statement; by blocking the ATP binding site; cited from earlier work
[4] = mice diabetic 2 months, 1,9-dideoxyforskolin 1 mg/kg daily IP, 5 hr after last dose, vs untreated diabetics

## C=C[C@@]1(C)CC(=O)[C@@H]2[C@@]3(C)CCCC(C)(C)[C@@H]3[C@H](O)[C@H](OC(C)=O)[C@@]2(C)O1 [1,9-dideoxyforskolin]
GLUT1 [1]; 1,9-dideoxyforskolin 0.1 mg/kg/day IP, 2 or 4 weeks, vs untreated diabetics
  retinal glucose levels: significantly reduced retinal glucose levels; also recorded: significant reduction in retinal glucose level
GLUT1 [1]; [4]
  glucose levels in RBCs: significant reduction; also recorded: decreased glucose levels
  glucose levels in brain: not in brain; also recorded: did not effect glucose levels
  glucose levels in retina: significant reduction; also recorded: decreased glucose levels
GLUT1 [1]
  retinal glucose (summary statement): equivalent effect to that of forskolin
Superoxide radicals
  increase of superoxide radicals (hydroethidine-induced fluorescence) in retinal homogenates: significantly blocked
GLUT1 [2]
  GLUT1 glucose transport: blocks GLUT1-mediated glucose transport
GLUT1 [3]
  binding to GLUT1: binds GLUT1
Adenylate cyclase
  adenylate cyclase stimulation: lacks adenylate cyclase-stimulating activity

## O=c1c(-c2ccc(O)cc2)coc2cc(O)cc(O)c12 [genistein]
GLUT1 [1]; genistein 50 mg/kg/day IP, 4 weeks, vs untreated diabetics
  retinal glucose levels: significantly reduced retinal glucose levels; also recorded: significant reduction in retinal glucose level
GLUT1 [1]
  retinal glucose (summary statement): significantly reduced retinal glucose to the same levels seen in non-diabetics
GLUT1 [2]
  GLUT1 glucose transport: suppresses glucose transport
GLUT1 [3]
  binding to GLUT1: binds to the ATP binding site of GLUT1
Tyrosine kinases
  tyrosine kinase inhibition: inhibits tyrosine kinases

## O=c1c(O)c(-c2cc(O)c(O)c(O)c2)oc2cc(O)cc(O)c12 [myricetin]
GLUT1 [3]
  binding to GLUT1: binds to the ATP binding site of GLUT1
